Assay results reported in patent US20240084002A1, “METHODS AND COMPOSITIONS UTILIZING IDO1-DEPENDENT VASCULARIZING CELLS FOR THE TREATMENT OF PATHOLOGICAL CONDITIONS INVOLVING NEOVASCULARIZATION” (LANKENAU INSTITUTE FOR MEDICAL RESEARCH, priority 2020, published 2024).
Like-named read-outs stand apart in the source and are kept apart here. Blank lines part the entries; values can stand above or below the compound they belong to.

Key:
[1] = molecular target: T1, IDO1 (Homo sapiens, UniProt P14902); assay: Kynurenine levels in supernatants of IFNγ+LPS treated U937 and HL60 cells (IDO1 activity); assay type: cell-based; conditions: inhibitor 1 μM, 24 hr
T1 construct: endogenous in cells; host or cells: U937 (ATCC CRL-1593.2) and HL60 (ATCC CCL-240), stimulated with IFNγ + LPS
T1 sequence (P14902 whole entry): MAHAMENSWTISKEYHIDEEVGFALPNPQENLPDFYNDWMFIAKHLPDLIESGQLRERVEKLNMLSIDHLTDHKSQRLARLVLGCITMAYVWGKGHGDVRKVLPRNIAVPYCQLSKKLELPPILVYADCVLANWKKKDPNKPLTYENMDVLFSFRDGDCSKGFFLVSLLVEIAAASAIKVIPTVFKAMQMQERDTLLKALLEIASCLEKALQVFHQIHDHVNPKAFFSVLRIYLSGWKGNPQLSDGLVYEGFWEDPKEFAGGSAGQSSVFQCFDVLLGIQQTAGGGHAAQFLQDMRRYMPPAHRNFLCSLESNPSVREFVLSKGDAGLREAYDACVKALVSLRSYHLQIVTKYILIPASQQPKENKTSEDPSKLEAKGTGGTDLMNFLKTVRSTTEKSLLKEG
Experimental: Kynurenine assay. Levels of kynurenine in U937 and HL60 cell supernatants were measured using Ehrlich's reagent (p-dimethylamino-benzaldehyde). Following treatments, supernatants were collected and transferred to a V-bottom 96-well plate and mixed with 40 μL 50% (w/v) trichloroacetic acid (TCA; LabChem) to precipitate any protein. The plate was then incubated at 65° C. for 30 minutes followed by centrifugation at 1250×g for 10 minutes. Following centrifugation, 100 μL of clarified supernatant was transferred to a new flat-bottomed 96-well plate and mixed at equal volumes with 2% (w/v) Ehrlich's reagent in acetic acid. The resulting reaction was measured at 490 nm using a Synergy HT microtiter plate reader (Bio-Tek). Vitreous humor was collected from eyes of mice that underwent the OIR process. Levels of kynurenine were measured using the IDK® Kynurenin ELISA kit (Immundiagnostik AG, Bensheim, Germany) according to manufacturer's protocol. Additionally, levels of kynurenine were confirmed by high-performance liquid chromatography (HPLC) coupled to electrospray ionization liquid chromatography/ tandem mass spectroscopy (LC/MS-MS) as described (18).

[2] = tested on: CYP1A1; assay: qPCR of IFNγ+LPS mediated induction of CYP1A1 in U937 and HL60 cells (AHR activation); conditions: inhibitor 1 μM, 24 hr
Experimental: Cell culture. The 4T1 (mouse mammary carcinoma; ATCC Cat# CRL-2539) and U937 (human histiocytic lymphoma; ATCC Cat# CRL-1593.2) cell lines were cultured in DMEM supplemented with penicillin, streptomycin, 10% FBS and 55 μM β-mercaptaethanol. The HL60 (human promyelocytic leukemia; ATCC Cat# CCL-240) cell line was maintained in IMDM media supplemented with 10% FCS plus 55 μM β-mercaptaethanol, 2 mM glutamax (Life Technologies), and 50 μg/ml gentamicin. […] No mycoplasma testing was done on the U937 or HL60 cell lines. […] In vitro experiments were performed with U937 and HL60 cells maintained no longer than passage 6. […] At 24 hr mRNA was prepared from the treated cells for qPCR-based analysis of gene expression and cell culture media was analyzed for levels of kynurenine to assess IDO1 enzymatic activity.
Quantitative real time PCR analysis. […] Quantitative PCR (QPCR) reactions were run using the Fast Start Universal SYBR Green Mix (Roche Applied Science) with an Eppendorf Realplex 4 Mastercycler QPCR machine. Levels of mRNA expression detected with primers specific for Atf4, Chop Il6 and Cyp1a1 (Tables 1-3) were normalized to 18S mRNA levels and differences between treatment groups were analyzed using the δ-δ cycle threshold method.

[3] = tested on: U937 and HL60 cells; assay: Viability assay (LDI Cell CountEZ TPS assay kit); conditions: IFNγ+LPS, at the concentrations used (1 μM), 24 hrs
Experimental: (§2) Viability assay. Cell viability in U937 and HL60 cells was measured by LDI Cell CountEZ™ toxicity, proliferation and survival (TPS) assay kit (LDI1201™) as per the manufacturer's protocol. Both cell lines were plated at a density of 10,000 cells/ well of a 96 well plate in 100 μl DMEM medium with 10% FBS. […] Bortezomib (20 nM; LC Laboratories, Cat# B-1408) was used as positive control for inducing cellular apoptosis. Treated cells were incubated at 37° C. in a humidified CO2 incubator for 24 hrs. The TPS assay was then performed with cell viability assessed by reading absorbance at 412 nm in a microtiter plate reader.

[4] = tested on: IL6 gene expression; assay: qPCR of IFNγ+LPS mediated induction of IL6 gene expression in U937 and HL60 cells; assay type: cell-based, human; conditions: inhibitor 1 μM, 24 hr
Excerpt: (§1) Quantitative real time PCR analysis.

[5] = tested on: NOS2; assay: NOS2 staining of 4T1 lung metastases; assay type: in vivo, mouse; conditions: WT mice with 4T1 lung metastases, 50 mg/kg p.o. b.i.d. over 3 days
[6] = tested on: U937 and HL60 cells; conditions: human, 24 h, 1 μM
Experimental: as §2

[7] = tested on: ATF4; assay: qPCR of IFNγ+LPS mediated induction of ATF4 in U937 and HL60 cells (ISR activation); assay type: cell-based, human; conditions: inhibitor 1 μM, 24 hr
Excerpt: as §1

[8] = tested on: 4T1 metastases; conditions: prior finding, reference (7); cited from earlier work
[9] = tested on: CHOP; assay: qPCR of IFNγ+LPS mediated induction of CHOP in U937 and HL60 cells (ISR activation); assay type: cell-based, human; conditions: inhibitor 1 μM, 24 hr
Excerpt: as §1

[10] = tested on: Gr-1+ CD11b^lo cells; assay: Matrigel plug assay, neovascular density; assay type: in vivo, mouse; conditions: plugs with WT Gr-1+ CD11b^lo cells in WT mice, 50 mg/kg oral gavage b.i.d. for the final 3 days, plugs resected at day 9
Experimental: Matrigel Plug Assay. To assess the in vivo neovascularizing capability of select immune cell populations isolated from 4T1 pulmonary metastases, 5×10^4-2×10^6 sorted cells were isolated (as indicated in the corresponding figure legends) by fluorescence-activated cell sorting (BD FACSAria III) into RPMI+10% FCS and put on ice. Immediately following sorting, isolated immune cell populations were suspended in 250 μl PBS and combined with 250 μl Matrigel (Corning® Cat# 356237) per plug on ice for in vivo injections. Plugs were established by subcutaneous injection in the dorsal region of recipient mice using an ice-cold syringe with a 21 gauge needle. […] After 9 days post injection, the matrigel plug was harvested and images recorded with either a Samsung Galaxy S6 or an iPhone X using the 2× lens with an additional 10× macro lens attachment (Moment).
For blood vessel quantification, the Matrigel plugs were blocked in OCT and cryosectioned using the tape transfer method ([…] per plug). Following sectioning, neovascularization was visualized under confocal microscope by fluorescence staining with rabbit anti-mouse for caveolin 1 and quantitatively analyzed using Adobe Photoshop as described above. Statistical Analysis. […] Significance for Kaplan-Meier survival curves was determined by 2-group log-rank test. […]

[11] = molecular target: T1, IDO1; conditions: U937 and HL60 cells, previously shown, reference (9); cited from earlier work
[12] = tested on: IL6 gene expression; conditions: U937 and HL60 cells, previously shown, reference (9); cited from earlier work

effect on the level of kynurenine produced [1]: neither had a significant effect
effect on induction of CYP1A1 message [2]: blocked induction of CYP1A1
Compound: C[C@@H](CO)NC(=O)c1cc(-c2ccc(Cl)cc2)nn(-c2cccc(F)c2)c1=O [BAY-218]
impact on cell viability [3]: Neither ISRIB, Epacadostat nor BAY-218 had a sufficient impact on cell viability
effect on IL6 gene expression [4]: no significant effect

Compound: NS(=O)(=O)NCCNc1nonc1C(=NO)Nc1ccc(F)c(Br)c1 [Epacadostat]
NOS2 expression within lung metastases [5]: elicits NOS2 elevation
impact on cell viability [6]: Neither ISRIB, Epacadostat nor BAY-218 had a sufficient impact on cell viability
effect on induction of ATF4 message [7]: effectively blocked
blood vessel formation within established 4T1 metastases [8]: reverses blood vessel formation
effect on induction of CHOP message [9]: effectively blocked
degree of neovascularization in Matrigel plugs [10]: decreased the degree of neovascularization promoted by CD11b^lo cells to a level quantifiably indistinguishable from CD11b^hi cells
reduction IL6 gene expression [4]: ≥ 99%

effect on the level of kynurenine produced [1]: neither had a significant effect
Compound: O=C(COc1ccc(Cl)cc1)NC1CCC(NC(=O)COc2ccc(Cl)cc2)CC1 (stereo not drawn) [ISRIB]
effect on induction of ATF4 message [7]: blocked induction
impact on cell viability [3]: Neither ISRIB, Epacadostat nor BAY-218 had a sufficient impact on cell viability
effect on induction of CHOP message [9]: blocked induction
effect on IL6 gene expression [4]: effectively blocked

Compound: methylthiohydantoin-DL-tryptophan [MTH-Trp]
IFNγ+LPS-mediated induction of IDO1 activity [11]: could be blocked
corresponding increase in IL6 [12]: could be blocked
